Measured values as given in article PMC6332448, “SAR Studies Leading to the Identification of a Novel Series of Metallo-β-lactamase Inhibitors for the Treatment of Carbapenem-Resistant Enterobacteriaceae Infections That Display Efficacy in an Animal Infection Model” (ACS Infectious Diseases, 2018).
Like-named read-outs stand apart in the source and are kept apart here.

Tests used:
NDM-1 = NDM-1 (Klebsiella pneumoniae, UniProt C7C422); assay: biochemical; format: biochemical; details: 10 mM HEPES pH 7.5, 25 °C, average of at least two independent assays
VIM-1 = VIM-1 (Pseudomonas aeruginosa, UniProt A0A0F7KYQ8); assay: biochemical; format: biochemical
IMP-1 = IMP-1 (Serratia marcescens, UniProt P52699); assay: biochemical; format: biochemical
[1] = system: NDM-1-producing Escherichia coli (DH5α/pLBII-NDM-1); assay: Imipenem MIC on laboratory strain; format: cell-based; details: tested at concentrations up to 1 mM; data not shown
[2] = target: Aeromonas hydrophila CphA MBL; set-up: method as in PMID 17307979; details: read-out: Ki [inhibition constant] CphA; cited from earlier work
VIM-2 [3] = target: T1, VIM-2 (Escherichia coli, UniProt Q5U7L7); assay: biochemical
[4] = system: NDM-1-producing strain Escherichia coli NTBC121; assay: Whole-cell meropenem potentiation, CLSI broth microdilution MIC; format: cell-based; details: for MICMEM (meropenem MIC in presence of inhibitor) vs NTBC121: inhibitor present at 100 μM, E. coli NTBC121 (NDM-1), meropenem alone 32 μg/mL
Protocol: (§1) Minimal inhibitory concentrations (MIC) were determined using the Clinical Laboratory Standards Institute (CLSI) broth microdilution procedure. MBL-positive Enterobacteriaceae clinical isolates tested in the susceptibility study included NDM-1-producing strain E. coli NTBC121, VIM-1-producing strain K. pneumoniae NTBC055, and IMP-1-producing strain K. pneumoniae NTBC062. (Individual MICs for all strains tested are presented in Table 2 and Table 1 in the Supporting Information).

[5] = system: VIM-1-producing strain Klebsiella pneumoniae NTBC055; assay: as above; format: cell-based; details: inhibitor present at 100 μM; K. pneumoniae NTBC055 (VIM-1); meropenem alone 16 μg/mL
Protocol: as §1

[6] = system: IMP-1-producing strain K. pneumoniae NTBC062; assay: as above; format: cell-based, Klebsiella pneumoniae; details: inhibitor present at 100 μM; K. pneumoniae NTBC062 (IMP-1); meropenem alone 4 μg/mL
Protocol: as §1

VIM-2 [7] = target: T1, VIM-2; details: tested up to 200 μM

NDM-1, sequence (C7C422 29-270, looked up, species assumed): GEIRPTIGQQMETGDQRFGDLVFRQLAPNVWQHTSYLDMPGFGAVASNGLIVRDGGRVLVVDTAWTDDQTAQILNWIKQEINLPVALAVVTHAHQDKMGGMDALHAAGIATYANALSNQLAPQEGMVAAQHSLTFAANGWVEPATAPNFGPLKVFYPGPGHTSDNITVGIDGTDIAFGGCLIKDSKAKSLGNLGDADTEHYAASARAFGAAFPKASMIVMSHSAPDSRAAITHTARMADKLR
IMP-1, sequence (P52699 19-246, looked up, species assumed): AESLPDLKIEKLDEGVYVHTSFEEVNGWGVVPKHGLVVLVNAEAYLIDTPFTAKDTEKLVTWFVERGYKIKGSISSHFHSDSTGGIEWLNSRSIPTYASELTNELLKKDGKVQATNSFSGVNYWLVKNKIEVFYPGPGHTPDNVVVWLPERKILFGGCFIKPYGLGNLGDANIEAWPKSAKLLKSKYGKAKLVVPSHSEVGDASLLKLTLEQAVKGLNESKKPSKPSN

SMILES	IC50 (NDM-1; NDM-1 IC50, 300 μM imipenem)	IC50 (VIM-1)	IC50 (IMP-1)	MICMEM (meropenem MIC in presence of inhibitor) vs NTBC121 [4]	MICMEM (meropenem MIC in presence of inhibitor) vs NTBC055 [5]	MICMEM (meropenem MIC in presence of inhibitor) vs NTBC062 [6]	further results
O=C(O)c1ccccn1 [Compound 1, pyridine-2-carboxylic acid, reference compound]	17.1 µM	> 200 µM	> 200 µM	–	–	–	inhibition of VIM-1, in words (VIM-1; tested up to 200 μM): no significant activity; inhibition of IMP-1, in words (IMP-1; tested up to 200 μM): no significant activity; reduction of imipenem MIC [1]: no reduction; Ki [2]: 6 µM; IC50 (VIM-2 [3]): > 200 µM
O=C(O)c1ncsc1NS(=O)(=O)Cc1ccc(Cl)cc1Cl [Compound 72]	2.1 µM	7 µM	0.5 µM	0.5 µg/mL	0.5 µg/mL	0.5 µg/mL	–
O=C(O)c1ncccc1NS(=O)(=O)c1ccccc1 [Compound 61]	–	–	–	16 µg/mL	4 µg/mL	4 µg/mL	IC50 (NDM-1; read-out: NDM-1 IC50, 300 μM imipenem): 49.9 µM; IC50 (VIM-1; read-out: VIM-1 IC50, 300 μM imipenem, 10 mM HEPES pH 7.5, 25 °C, average of at least two independent assays): > 200 µM; IC50 (IMP-1; read-out: IMP-1 IC50, 300 μM imipenem, 10 mM HEPES pH 7.5, 25 °C, average of at least two independent assays): > 200 µM; potentiation efficiency (PE = MIC/IC50) ([4]; potentiated meropenem MIC vs E. coli NTBC121 divided by NDM-1 IC50): 0.32
O=C(O)c1ncccc1NS(=O)(=O)c1ccccc1 [Compound 32]	49.9 µM	> 200 µM	> 200 µM	16 µg/mL	4 µg/mL	2 µg/mL	inhibition of VIM-2, in words (VIM-2 [7]): strong inhibition; IC50 (VIM-2 [3]): 1.9 µM
O=C(O)c1ncsc1NS(=O)(=O)Cc1ccccc1Cl [Compound 68]	2.32 µM	6.72 µM	1.75 µM	0.5 µg/mL	0.25 µg/mL	0.5 µg/mL	–
O=C(O)c1ncccc1NS(=O)(=O)Cc1ccccc1 [Compound 63]	> 100 µM	> 100 µM	> 100 µM	16 µg/mL	1 µg/mL	1 µg/mL	–
N#Cc1cccc(CS(=O)(=O)Nc2scnc2C(=O)O)c1 [Compound 66]	8.82 µM	54.2 µM	2.51 µM	2 µg/mL	0.5 µg/mL	1 µg/mL	–
O=C(O)c1ncsc1NS(=O)(=O)Cc1ccccc1 [Compound 64]	2.53 µM	62.7 µM	1.83 µM	0.5 µg/mL	0.5 µg/mL	0.5 µg/mL	–
O=C(O)c1ncccc1NS(=O)(=O)Cc1ccc(Cl)cc1Cl [Compound 41]	–	–	–	16 µg/mL	1 µg/mL	1 µg/mL	IC50 (NDM-1; 300 μM imipenem, read-out: NDM-1 IC50): 80.6 µM; IC50 (VIM-1; 300 μM imipenem, 10 mM HEPES pH 7.5, 25 °C, average of at least two independent assays, read-out: VIM-1 IC50): 17.5 µM; IC50 (IMP-1; 300 μM imipenem, 10 mM HEPES pH 7.5, 25 °C, average of at least two independent assays, read-out: IMP-1 IC50): 74.3 µM
